Measurements reported in paper PMC13070491, “Single-nucleus transcriptomics, pharmacokinetics, and pharmacodynamics of CDK4/6 and mTOR inhibition in a Phase 0/1 trial of recurrent high-grade glioma” (Neuro-Oncology, 2025).
Where “and” joins values, the source holds several entries; their conditions need not be identical. Identical values can stand only once.

Tests used:
[1] = Adverse events related to study treatment (CTCAE); type: in vivo, human
Experimental: Eligibility was determined based on previous clinical records, panel DNA sequencing, and IHC of archival tissue from a previous surgery (Figure 1, Supplementary Figure S2A).

pS6 ribosomal protein = experiment: IHC of tumor tissue, pS6 ribosomal protein positive cells; type: in vivo, human; conditions: 5 days ribociclib + everolimus; paired t-test P > .05
Experimental: (§1) Everolimus pharmacodynamic biomarkers were assessed using IHC with the following antibodies: anti-p4EBP1 (Cell Signaling Technology; #2855, 1:500); anti-pS6 ribosomal protein (Cell Signaling -Technology; #4858, 1:100). IHC staining was performed using the BOND RX automated system (Leica Biosystems) as previously described.[8] Stained slides were imaged on a Leica Versa microscope and analyzed with Aperio Image software. Percentage of stain-positive cells was quantified from at least 6 randomly selected regions of interest within the tumor as assessed by a board-certified neuropathologist.

Ki-67 = experiment: IHC of tumor tissue, percentage of Ki-67 positive cells, archival vs Phase 0 surgical sample; type: in vivo, human
[2] = Plasma pharmacokinetic parameters (LC-MS/MS); conditions: plasma; for AUC(0-t) / Cmax / half-life / Tmax: human, oral; for AUC(0-t): Total Ribociclib AUClast; for Cmax: Total Ribociclib Cmax
Experimental: Pharmacokinetic evaluation was conducted as previously described[8] using a validated liquid chromatography with tandem mass spectrometry (LC-MS/MS) method.[16] […] CSF samples were intraoperatively collected.

p4EBP1 = experiment: IHC of tumor tissue, p4EBP1 positive cells; type: in vivo, human; conditions: 5 days ribociclib + everolimus; paired t-test P > .05
Experimental: as §1

GB239 = experiment: Ribociclib-treated in vitro single-cell RNA sequencing, malignant state proportions; type: cell-based, human; conditions: ribociclib vs DMSO 5 days
Description: (§2) Patient-derived glioma stem cell lines (GSCs; GB126, GB86, and GB239) were established from resected GBM tumor tissue. Cell lines were genetically profiled for mutations and copy number aberrations using the […] custom gene panel. All cell lines harbored high-level CDK4 amplifications among other alterations. […] The single-cell RNA sequencing data were then processed via cellranger count and Seurat. Briefly, cells were filtered out based on the following criteria: minimum number of genes detected >500 and <10 000 with a maximum percentage of mitochondrial genes set to 10%. Statistical assessment was made between the malignant proportions of each cell state using a 2-sided paired t-test.

GB126 = experiment: as above; type: cell-based, human; conditions: ribociclib vs DMSO 5 days
Description: as §2

GB86 = experiment: as above; type: cell-based, human; conditions: ribociclib vs DMSO 5 days
Description: as §2

[3] = tested on: phosphorylated Rb protein in GB126, GB86 and GB239 glioma stem cell lines; experiment: Determination of ribociclib dose in vitro (phosphorylated Rb, Western blotting); type: cell-based, human; conditions: 5 days, tested 0.5, 1 and 5 μM
Experimental: Patient-derived glioma stem cell lines (GSCs; GB126, GB86, and GB239) were established from resected GBM tumor tissue. Cell lines were genetically profiled for mutations and copy number aberrations using the IvySeq custom gene panel. […] GB239 was derived from a tumor sample included in this Phase 0 trial (tumor sample: 100-0039). All human GSCs were cultured as described previously.[12]

[4] = Dose Level 4: ribociclib 600mg QD 5 days + everolimus 50mg single dose, CTCAE grade 1
[5] = Dose Level 5: ribociclib 600mg QD 5 days + everolimus 60mg single dose, CTCAE grade 2

CN(C)C(=O)c1cc2cnc(Nc3ccc(N4CCNCC4)cn3)nc2n1C1CCCC1 [Ribociclib, ribociclib]
Dizziness, No. Patients Affected [1, 4]: 1
Photophobia, No. Patients Affected [1, 4]: 1
Platelet count decreased, No. Patients Affected ([1]; Dose Level 5: ribociclib 600mg QD 5 days + everolimus 60mg single dose, CTCAE grade 1): 1
Nausea, No. Patients Affected [1, 5]: 1
Pancytopenia (serious adverse event), No. Patients Affected [1, 5]: 1
Electrocardiogram QT prolonged, No. Patients Affected ([1]; Dose Level 6: ribociclib 600mg QD 5 days + everolimus 70mg single dose, CTCAE grade 1): 1
mTOR pathway activity as quantified by pS6, surgical specimen vs archival tissue (pS6 ribosomal protein): elevated but not significantly different
change in proliferative Ki-67 marker, surgical samples vs matched archival tissue (Ki-67; IDH-wildtype patients n = 20, paired t-test P = .02, 5 days ribociclib + everolimus): significant decrease
median decrease in Ki-67 (Ki-67; ribociclib 400 mg): 2.93%
median decrease in Ki-67 (Ki-67; ribociclib 600 mg): 8.94%
AUC(0-t) ([2]; 400 mg, Mean): 18.5 µM·h
AUC(0-t) ([2]; 400 mg, Median): 13.8 µM·h
Cmax ([2]; 400 mg, Median): 1320 nM
half-life ([2]; 400 mg, Total Ribociclib T1/2, plasma, Mean): 13.1 h
half-life ([2]; 400 mg, Total Ribociclib T1/2, plasma, Median): 11.4 h
half-life ([2]; 400 mg, Unbound Ribociclib T1/2, plasma, Mean): 11.3 h
half-life ([2]; 400 mg, Unbound Ribociclib T1/2, plasma, Median): 11.2 h
half-life ([2]; 400 mg, Unbound Ribociclib T1/2, plasma, individual patients): 7.04 h
Tmax ([2]; 400 mg, Unbound Ribociclib Tmax, Mean): 2.65 h
AUC(0-t) ([2]; 600 mg, Mean): 28.4 µM·h
Cmax ([2]; 600 mg, Mean): 2190 nM
Cmax ([2]; 600 mg, Median): 1810 nM
half-life ([2]; 600 mg, Total Ribociclib T1/2, plasma, Mean): 17.3 h
Tmax ([2]; 600 mg, Total Ribociclib Tmax, Mean): 3.23 h
half-life ([2]; 600 mg, Unbound Ribociclib T1/2, plasma, Median): 11.5 h
Tmax ([2]; 600 mg, Unbound Ribociclib Tmax, Mean): 4.76 h
Total Ribociclib CL/F ([2]; 400 mg, Mean): 62.22 L/h
Total Ribociclib Tmax ([2]; 400 mg, Mean): 3.00 h
Unbound Ribociclib Cmax ([2]; 400 mg, Mean): 290 nM
Total Ribociclib CL/F ([2]; 400 mg, Median): 66.79 L/h
Unbound Ribociclib Cmax ([2]; 400 mg, Median): 230 nM
Total Ribociclib CL/F ([2]; 400 mg, individual patients): 65.30 L/h and 28.56 L/h and 68.28 L/h and 29.74 L/h and 83.61 L/h and 97.80 L/h
Unbound Ribociclib Cmax ([2]; 400 mg, individual patients): 310 nM and 690 nM and 150 nM and 260 nM and 120 nM and 190 nM
Unbound Ribociclib T1/2 ([2]; 400 mg, individual patients): 15.62 h and 13.50 h and 9.01 h
Total Ribociclib CL/F ([2]; 600 mg, Mean): 59.77 L/h
Unbound Ribociclib Cmax ([2]; 600 mg, Mean): 320 nM
Unbound Ribociclib T1/2 ([2]; 600 mg, Mean): 15.49 h
Total Ribociclib CL/F ([2]; 600 mg, Median): 55.14 L/h
Unbound Ribociclib Cmax ([2]; 600 mg, Median): 280 nM
Total Ribociclib CL/F ([2]; 600 mg, individual patients): 22.31 L/h and 79.68 L/h and 49.86 L/h and 52.45 L/h and 57.05 L/h and 59.00 L/h and 104.11 L/h and 29.22 L/h and 48.20 L/h and 71.59 L/h and 35.82 L/h and 156.41 L/h and 47.05 L/h and 55.14 L/h and 66.74 L/h and 66.55 L/h and 50.38 L/h and 59.19 L/h and 24.80 L/h
Total Ribociclib Tmax ([2]; 600 mg, individual patients): 3.98 h and 1.67 h and 4.00 h
Unbound Ribociclib Cmax ([2]; 600 mg, individual patients): 580 nM and 280 nM and 370 nM and 290 nM and 260 nM and 340 nM and 310 nM and 730 nM and 300 nM and 220 nM and 380 nM and 90 nM and 210 nM and 180 nM and 240 nM and 230 nM and 470 nM
Unbound Ribociclib T1/2 ([2]; 600 mg, individual patients): 14.45 h and 9.00 h and 8.65 h and 15.15 h and 15.94 h and 42.32 h
mTOR pathway activity as quantified by p4EBP1, surgical specimen vs archival tissue (p4EBP1): elevated but not significantly different
change in cycling cells (GB239; paired t-test P = 5.4E-4): decrease
AC-like malignant state proportion (GB239; paired t-test P = .03): increase
MES-like malignant state proportion (GB126): increase
AC-like malignant state proportion (GB126; paired t-test P = 6.6E-3): increase
change in cycling cells (GB126; paired t-test P = 8.7E-4): decrease
change in cycling cells (GB86; paired t-test P = .04): decrease
AC-like malignant state proportion (GB86; paired t-test P = .06): increase
dose per cell line that achieved a 50% inhibition of pRb [3]: 0.5-5 µM
